Compared with `CC(=O)OCC1OC(OCC(C)=CCN2C(=O)c3ccccc3C2=O)C(OC(C)=O)C(OC(C)=O)C1OC(C)=O` (configuration not stated), `CCOP(=O)(Cc1ccccc1CN1C(=O)c2ccccc2C1=O)OCC` is lower in melting point: 104 to 105 °C for the first, 91 to 92 °C for the second.

First: CC(=O)Nc1ccc(-c2ccc3nnn(Cc4ccc5ncccc5c4)c3n2)cc1
Second: Cc1ccc(C(=O)Nc2nccc(-c3c(-c4cccc(C)c4)nc4cccnn34)n2)cc1
The melting point of the first is higher: 220 to 223 °C for the first, 211 to 212 °C for the second.

First: Oc1ncnc(C(F)F)c1Cl
Second: Oc1cc(-c2ccc(Cl)cc2)[nH]n1
The melting point of the first is lower: 148 to 150 °C for the first, 240 to 241 °C for the second.

First: CC(=O)Nc1cccc2c1CN(c1ccc3c(ccn3C)c1)C2=O
Second: Cc1cc(S(=O)(=O)N2c3ccc(Br)cc3-c3ccccc3C2C)ccc1O (configuration not stated)
The melting point of the first is higher: 239 to 243 °C for the first, 193 to 195 °C for the second.

First: CC(=O)OCCCNC(=O)C1=C(C(=O)Nc2ccc(Cl)cc2F)CCCC1
Second: CC(=O)Oc1ccc(CCCC2CC(=O)OC(=O)C2)cc1
The melting point of the first is higher: 127 to 128 °C for the first, 55 to 57 °C for the second.

First: COC(=O)CN1C(=O)CN=C(c2ccccc2Cl)c2cc(Cl)ccc21
Second: CCOC(=O)CN1C(=O)C(N2C(=O)c3ccccc3C2=O)CCCc2ccccc21 (configuration not stated)
The melting point of the first is higher: 193 to 194 °C for the first, 79 to 81 °C for the second.

First: CCc1cccc(CC(=O)O)c1OCCCc1cn(-c2ncc(Cl)cc2Cl)nc1C(C)C
Second: CCCCCS(=O)(=O)NC(=O)/C=C/c1cc(OC(C)C)nn1Cc1ccc(Cl)cc1Cl
The melting point of the first is lower: 93 to 95 °C for the first, 109 to 112 °C for the second.

Compared with `CCNC(=O)c1ccc2ncc(C3CCN(C)CC3)c-2[nH]1`, `CCNC(=O)CC1CN=C(c2cc3cc(Oc4ccc(S(C)(=O)=O)nc4)ccc3[nH]2)S1` (configuration not stated) is higher in melting point: 117 to 120 °C for the first, 216 to 217 °C for the second.

First: Cc1nn(CC2CCCC2)c2nc(-c3ccncc3)nc(N)c12
Second: Cc1nc(C)c(-c2ccnc(Nc3ccc(N4CCSCC4)cc3)n2)s1
The melting point of the first is higher: 177 to 178 °C for the first, 173 to 174 °C for the second.

First: O=C(Nc1c(OCc2ccccc2)cc(Br)cc1[N+](=O)[O-])C(F)(F)F
Second: COc1cc(-c2ccccc2)c([N+](=O)[O-])cc1OC
The melting point of the first is higher: 146 to 147 °C for the first, 113 to 115 °C for the second.

First: COc1ccc(C(=O)Nc2ccncc2)c2c3cc(Cl)ccc3n(Cc3ccc(F)cc3)c12
Second: CCCCc1nc2ccc(C(=O)O)cc2n1Cc1ccc(-c2ccccc2-c2nnn[nH]2)cc1
The melting point of the first is lower: 241 to 245 °C for the first, 258 to 259 °C for the second.

First: CN1Cc2c(C=NO)ncn2-c2ccc(F)cc2C1=O
Second: Cc1cc(CNC(=O)c2cc(-n3cnn(Cc4ccc(F)cc4)c3=O)n[nH]2)[nH]n1
The melting point of the first is higher: 247 to 250 °C for the first, 239 to 241 °C for the second.

First: Cc1cc(C)c2c(c1)C=C(/C=C/C=O)CO2
Second: COc1ccc(S(=O)(=O)Nc2c(C#N)cc(C)cc2C(=O)O)cc1
The melting point of the first is lower: 76 to 78 °C for the first, 162 °C for the second.

First: CN1C(=O)C(c2ccc(OCCCCCBr)cc2)Sc2cc(Cl)ccc21 (configuration not stated)
Second: Cc1ccc(C(=O)SCC2C(=O)OCC2c2ccc(Cl)cc2)cc1 (configuration not stated)
The melting point of the first is lower: 66 to 68 °C for the first, 99 to 100 °C for the second.

First: O=C(N[C@H](Cc1ccc(C(F)(F)F)cc1)[C@@H](O)c1ccc(Oc2ccccc2)cc1)c1ccc(F)c2ccccc12 (racemic)
Second: Cc1ccc(C(=O)Nc2nc(-c3ccccc3)c(-c3nc4ccccc4c(=O)n3-c3ccccc3C)s2)cc1
The melting point of the first is lower: 184 to 185 °C for the first, > 275 °C for the second.

First: OCc1nn(-c2ccc(Cl)cc2)c2c1CCC2
Second: CON(C)C(=O)CCc1oc(-n2ccnc2C)nc1-c1ccc(Cl)cc1
The melting point of the first is higher: 149 to 150 °C for the first, 116 to 117 °C for the second.

Compared with `CC(=O)Nc1ccc(S(=O)(=O)Nc2nnc(CC(=O)O)s2)cc1`, `CC(=O)OCc1cccc(Cl)c1NS(=O)(=O)c1nc2nc(C)cc(C)n2n1` is higher in melting point: 206 to 207 °C for the first, 214 to 217 °C for the second.

Compared with `CCOP(=O)(OCC)C1(P(=O)(OCC)OCC)CC(C(=O)CC)=NN1`, `CCOC(=O)c1c(CN(CC)CC)nc2cc(OC)c(OC)cc2c1-c1ccc(OC)cc1` is higher in melting point: 96 to 98 °C for the first, 118 to 119 °C for the second.

First: CC1CC(=O)c2c(SCc3ccccc3)ccc(-c3ccccn3)c2C1 (configuration not stated)
Second: OC(CCc1ccccc1)c1cnc2sc3ccccc3n12 (configuration not stated)
The melting point of the first is lower: 163 to 165 °C for the first, 174 to 175 °C for the second.

First: CN(C)CCOc1cccc2c1c1cccc3c1n2C(c1ccccc1)CO3 (configuration not stated)
Second: CO[C@H]1CCCC[C@@]1(OC)c1cccc(OCc2ccc3ccccc3c2)c1 (racemic)
The melting point of the first is higher: 117 to 118 °C for the first, 93 to 94 °C for the second.

`Cn1c(=O)[nH]c2ccsc2c1=O` and `O=C1CN(c2ccc(OC(F)(F)C(F)F)cc2)C(=O)CN1` cannot be ordered by melting point: 260 to 262 °C for the first, > 250 °C for the second.

Compared with `O=S(=O)(CC=C1CCCC1)c1ccccc1`, `CS(=O)(=O)C(=C1CN(C(c2ccccc2)c2ccccc2)C1)c1cc(Cl)cc(Cl)c1` is higher in melting point: 68 °C for the first, 204 °C for the second.

Compared with `O=CNc1nc(S(=O)(=O)Nc2c(F)cccc2F)n[nH]1`, `Cc1cccc2c(=O)c(CCCl)n[nH]c12` is lower in melting point: 258 to 260 °C for the first, 222 to 225 °C for the second.

First: NC(=S)NC1CCCc2sccc21 (configuration not stated)
Second: COc1ccc(N2CCN(C(=O)CC3CCc4ccccc43)CC2)cc1 (configuration not stated)
The melting point of the first is higher: 129 to 131 °C for the first, 111 to 112 °C for the second.

First: CCCc1c(OC(C)=O)ccc2oc(Cc3ccc(OC)cc3)c(C)c12
Second: CCCc1c(OCCCCOc2ccc(Sc3ccccc3CC(=O)O)cc2)ccc(C(C)=O)c1O
The melting point of the first is lower: 39 to 41 °C for the first, 76 to 78 °C for the second.

First: CCCCn1c(=O)n(Cc2ccccc2)c(=O)c2[nH]c(Cc3ccc(N4C(=O)CCC4=O)cc3)nc21
Second: CS(=O)(=O)c1ccc(Oc2cc(OCc3ccccc3)c3[nH]c(C4=NCC(CC(N)=O)S4)cc3c2)cc1 (configuration not stated)
The melting point of the first is higher: 208 to 212 °C for the first, 134 to 135 °C for the second.

First: CCCN(CCC)c1c([N+](=O)[O-])cc(C)c(C(C)C)c1[N+](=O)[O-]
Second: Cc1cc([N+](=O)[O-])c(NC(C)C)c([N+](=O)[O-])c1C(C)C
The melting point of the first is lower: 48.5 to 49 °C for the first, 54 to 55 °C for the second.

Compared with `O=C(O)COc1cc2c(c(Cl)c1Cl)C(=NO)C1(CCCC1)C2`, `NC(=O)C1C(=O)NC(=O)C(C(N)=O)C12CCCCC2` (configuration not stated) is higher in melting point: 228 °C for the first, > 300 °C for the second.

First: O=C(c1cc(-c2ccc(F)cc2)c(-c2ccc(F)cc2)s1)C(F)(F)F
Second: CC(=O)Oc1ccc(-c2[nH]c3ccc(Cl)cc3c2-c2ccc(S(C)(=O)=O)cc2)cc1
The melting point of the first is lower: 120 to 122 °C for the first, 248 to 250 °C for the second.

First: Nc1cccc(Oc2ncccc2C(=O)NCc2ccccc2Cl)c1
Second: Cc1ccc(Cl)c(Nc2ccccc2C(N)=O)c1Cl
The melting point of the first is lower: 101 to 103 °C for the first, 185 to 187 °C for the second.

First: CCCCCCOc1cc(C=O)c(OCCCCCC)cc1C=O
Second: CCCCCCCCCCCCOC(=O)N[C@@H](CCCCN)C(=O)O
The melting point of the first is lower: 74.5 to 76 °C for the first, > 260 °C for the second.

First: CCOC(=O)CN1C(=O)N(c2ccc(C#N)c(C(F)(F)F)c2)C(=O)C1(C)C
Second: CCCC(CC)Nc1cc(C(=O)O)ccc1N1C(=O)CCC1(CO)CO (configuration not stated)
The melting point of the first is lower: 152 °C for the first, 232 to 233 °C for the second.

First: O=C(Cc1ccccc1)c1ccc(C(=O)Cc2ccccc2)cc1
Second: Nc1ccc(Nc2c(NCc3ccccc3)cc(C(=O)O)cc2S(=O)(=O)Nc2ccccc2N)cc1
The melting point of the first is lower: 171 to 173 °C for the first, 225 °C for the second.

Compared with `Cc1ccccc1NN=C(Cl)c1ccccc1`, `CS(=O)(=O)Nc1cc2c(cc1Oc1ccccc1)C(=O)C(Sc1ccccc1)C2` (configuration not stated) is higher in melting point: 64.5 to 66 °C for the first, 86 °C for the second.

Compared with `CCOC(=O)C1=NN=C(c2ccc(OC)c(OC)c2)c2cc(OC)c(OC)cc2C1CC` (configuration not stated), `CCCCCCc1cc2c(s1)-n1c(C)nnc1CN=C2c1ccc(OC)cc1` is lower in melting point: 178 to 180 °C for the first, 97 to 99 °C for the second.

First: CC(C)(C)NC(=O)c1nn(-c2ccc(F)cc2F)c2c1C1CC3CC(C1)CC2C3
Second: Nc1c(F)c(N2CCC3(CC3N)C2)c(F)c2c1c(=O)c(C(=O)O)cn2[C@@H]1C[C@@H]1F (some centres not stated)
The melting point of the first is higher: 188 to 190 °C for the first, 180 to 181 °C for the second.

First: Nc1cc(Cl)c(I)c(Cl)c1
Second: COC(=O)Nc1c(Cl)ccc(C)c1F
The melting point of the first is higher: 147 to 148 °C for the first, 109 to 112 °C for the second.

First: Cc1[nH]c(=S)n(Nc2cccc(Cl)c2)c1C
Second: Clc1cccc(Nc2ncnc3[nH]nc(NCc4ccc(-c5nccs5)cc4)c23)c1
The melting point of the first is lower: 234 °C for the first, 241 to 243 °C for the second.

`CCCn1nnn(-c2cc(O)c(F)cc2F)c1=O` and `CCCN(CCC)C(=O)c1cc(C)cc(C(=O)N[C@@H](Cc2cc(F)cc(F)c2)[C@@H](O)CCN)c1` cannot be ordered by melting point: 65 to 67 °C for the first, 61 to 72 °C for the second.

First: Clc1ccc2c(c1)CCc1cccnc1C2=C1CCNCC1
Second: COc1ccc(-c2ccc3[nH]c4ncc(Cl)cc4c3c2)cc1
The melting point of the first is lower: 154 to 155 °C for the first, > 220 °C for the second.

Compared with `CCCc1nc2c(N)nc3cc(OCCCN)ccc3c2n1CC(C)C`, `COCCOc1ccc(/C=C/C(=O)O)c(OCc2ccc(Cl)cc2Cl)c1` is higher in melting point: 173 to 174 °C for the first, 176 to 178 °C for the second.

Compared with `COc1ccc2c(c1)C1(CO2)C(=O)N(C)c2ccccc21` (configuration not stated), `COc1ccc2[nH]c3c(c2c1)C[C@@]1(C)C(=O)N(CCN2CCOCC2)C(=O)N1[C@@H]3c1cccc(O)c1` (racemic) is higher in melting point: 159 to 161 °C for the first, 260 to 263 °C for the second.

First: CNC(=O)N1CC(C)(C)N(C)C(C)(C)CC1=O
Second: CC(C)(C)OC(=O)C(CC(=O)O)N1C(=O)C2NC(C)(C)SC21 (configuration not stated)
The melting point of the first is lower: 111 to 113 °C for the first, 137 to 138 °C for the second.

First: CC(C)(C)c1ccc2c(Br)c3ccc(C(C)(C)C)cc3c(Br)c2c1
Second: COc1cccc([C@H]2O[C@H](CC(=O)NCc3ccc(C(=O)O)cc3)C(=O)N(CC(C)(C)CO)c3ccc(Cl)cc32)c1OC
The melting point of the first is higher: 150 to 152 °C for the first, 143 to 144 °C for the second.

First: CCC(CC)Nc1c(C)c(C)nc2c1c(C)nn2-c1c(C)cc(C)cc1C
Second: CCOP(=O)(CN1CCC(N(C)S(=O)(=O)c2ccc(Nc3nccc(Nc4ccc(F)c(F)c4)n3)cc2)CC1)OCC
The melting point of the first is higher: 201 to 205 °C for the first, 138 °C for the second.

First: CC(C)C(NC(=O)OCc1ccncc1)C(=O)NC(Cc1ccccc1)C(O)C(Cc1ccccc1)NC(=O)C(NC(=O)OCc1ccncc1)C(C)C (configuration not stated)
Second: CC(=O)SCC(Cc1noc2ccccc12)C(=O)Nc1cccc(C(=O)O)c1 (configuration not stated)
The melting point of the first is lower: 158 to 159 °C for the first, 185 to 187 °C for the second.

First: CC12CC(=O)C3C(CCC4CC=CCC43C)C1CCC2C#N (configuration not stated)
Second: CC(=O)C1=C(C#N)C(c2cccc(C#N)c2Br)c2c[nH]nc2N1 (configuration not stated)
The melting point of the first is lower: 189 to 191 °C for the first, > 230 °C for the second.

Compared with `CC(C)c1cc(C(=O)Nc2ccc(C(=O)O)c(O)c2)oc1C(C)C`, `OCc1ccc(/C=C/c2ccncc2)cc1` is higher in melting point: 179 to 180 °C for the first, 211 to 213 °C for the second.

`COCn1cc(C2=C(C#N)C(c3cccc4nonc34)c3c[nH]nc3N2)c2ccccc21` (configuration not stated) showed a melting point of 200 °C.

— a melting point compilation (Tetko et al.; mined from patent text by program, amines drawn as free bases though some values may be those of a salt)
